# Test system: Erysiphe graminis
# Assay: Test for preventive effect on wheat powdery mildew
# Assay type: in vivo
# Conditions: wheat (Norin-61-go) seedlings, 500 ppm active ingredient, preventive treatment; diseased area of first leaves 10 days after inoculation with Erysiphe graminis
# Experimental: Test for Preventive Effect on Wheat Powdery Mildew 9 Wheat seeds (variety: Norin-61-go) were sown in each 9 cm×9 cm polyvinyl chloride pot, grown in a greenhouse for 8 days, then treated with 10 ml per pot of aqueous solutions of wettable powders prepared in accordance with Formulation Example 2, at a concentration of 500 ppm in terms of the active ingredients and dried in the air. Then, the seedlings were inoculated with Erysiphe graminis spores by sprinkle over the plant and placed in a greenhouse of from 20 to 25° C. 10 days after the inoculation, the total diseases area of the first leaves in each pot was observed and evaluated on the basis of the standards shown in Table 67. [table]
row,SMILES,Biological effectiveness
1,Cc1nc2cc(Cl)ccc2n1-c1nc(OC(C)C)nc(OC(C)C)n1 [Compound I-592],A (No diseased area)
2,COc1nc(OC)nc(-n2c(C)nc3cc(Br)ccc32)n1 [Compound I-216],A (No diseased area)
3,COc1cc(OC)nc(-n2c(Cl)nc3ccccc32)n1 [Compound I-2],A (No diseased area)
4,CCOc1cc(OCC)nc(-n2c(C)nc3cc(C)ccc32)n1 [Compound I-501],A (No diseased area)
5,COc1nc(OC)nc(-n2c(C(F)(F)F)nc3cc(Br)ccc32)n1 [Compound I-311],A (No diseased area)
6,COc1cc(OC)nc(-n2cnc3cc(Cl)ccc32)n1 [Compound I-83],B (Diseased area of less than 25%)
7,COc1ccc2nc(C)n(-c3nc(OC)cc(OC)n3)c2c1 [Compound I-204],A (No diseased area)
8,COc1cc(OC)nc(-n2c(C(Cl)(Cl)Cl)nc3cc(Cl)ccc32)n1 [Compound I-400],A (No diseased area)
9,COc1cc(C)nc(-n2cnc3ccccc32)n1 [Compound I-726],B (Diseased area of less than 25%)
10,COc1nc(OC)nc(-n2c(C)nc3cc(F)ccc32)n1 [Compound I-214],A (No diseased area)
11,COc1cc(OC)nc(-n2c(C)nc3cc(OC(F)(F)F)ccc32)n1 [Compound I-192],B (Diseased area of less than 25%)
12,COc1ccc2ncn(-c3nc(OC)cc(OC)n3)c2c1 [Compound I-116],B (Diseased area of less than 25%)
13,COc1nc(OC)nc(-n2c(C)nc3cc(C(F)(F)F)ccc32)n1 [Compound I-225],A (No diseased area)
14,CCOc1nc(OCC)nc(-n2c(C(F)(F)F)nc3cc(Cl)ccc32)n1 [Compound I-545],A (No diseased area)
15,COc1nc(OC)nc(-n2c(C(F)(F)F)nc3cc(Cl)ccc32)n1 [Compound I-310],A (No diseased area)
16,COc1ccnc(-n2c(C)nc3ccc(Cl)cc32)n1 [Compound I-675],B (Diseased area of less than 25%)
17,CCOc1nc(OCC)nc(-n2cnc3cc(Br)ccc32)n1 [Compound I-490],A (No diseased area)
18,CCCOc1nc(C)nc(-n2c(C)nc3cc(C)ccc32)n1 [Compound I-831],B (Diseased area of less than 25%)
19,COc1cc(OC)nc(-n2c(C)nc3ccc(C)cc32)n1 [Compound I-202],B (Diseased area of less than 25%)
20,CCOc1ccnc(-n2cnc3cc(Cl)ccc32)n1 [Compound I-692],B (Diseased area of less than 25%)
21,COc1ccc2c(c1)ncn2-c1nc(OC)nc(OC)n1 [Compound I-141],A (No diseased area)
22,CCOc1nc(OCC)nc(-n2c(C(F)(F)F)nc3cc(C)ccc32)n1 [Compound I-543],A (No diseased area)
23,CCOc1nc(OCC)nc(-n2c(C(F)(F)F)nc3cc(Br)ccc32)n1 [Compound I-546],A (No diseased area)
24,Cc1nc2cc(Cl)c(Cl)cc2n1-c1nc(Cl)cc(Cl)n1 [Compound I-1064],B (Diseased area of less than 25%)

row,SMILES,Biological effectiveness
1,CCOc1cc(C)nc(-n2cnc3cc(C)ccc32)n1 [Compound I-772],A (No diseased area)
2,C=CCOc1nc(OCC=C)nc(-n2c(C)nc3cc(Cl)ccc32)n1 [Compound I-601],A (No diseased area)
3,CCc1nc2cc(Cl)ccc2n1-c1nc(OC)cc(OC)n1 [Compound I-333],A (No diseased area)
4,CCCc1cc(OC)nc(-n2c(Cl)nc3ccccc32)n1 [Compound I-960],A (No diseased area)
5,CCOc1ccc2c(c1)nc(Cl)n2-c1nc(OC)cc(OC)n1 [Compound I-261],B (Diseased area of less than 25%)
6,COc1cc(OC)nc(-n2c(C(F)(F)F)nc3ccccc32)n1 [Compound I-26],A (No diseased area)
7,COC(=O)c1ccc2c(c1)nc(C)n2-c1nc(OC)nc(OC)n1 [Compound I-232],B (Diseased area of less than 25%)
8,COc1cc(OC)nc(-n2cnc3ccccc32)n1 [Compound I-1],A (No diseased area)
9,COc1nc(OC)nc(-n2cnc3cc(C)ccc32)n1 [Compound I-133],A (No diseased area)
10,COc1cc(OC)nc(-n2c(C(Cl)(Cl)Cl)nc3ccc(C)cc32)n1 [Compound I-404],B (Diseased area of less than 25%)
11,COc1nc(OC)nc(-n2c(C(F)(F)F)nc3ccccc32)n1 [Compound I-66],A (No diseased area)
12,CCc1ccc2c(c1)nc(C)n2-c1nc(OC)nc(OC)n1 [Compound I-219],A (No diseased area)
13,C#CCOc1cc(C)nc(-n2cnc3ccccc32)n1 [Compound I-894],B (Diseased area of less than 25%)
14,CCOc1ccnc(-n2c(C)nc3cc(Cl)ccc32)n1 [Compound I-694],B (Diseased area of less than 25%)
15,COc1cc(OC)nc(-n2c(C)nc3ccc(Cl)cc32)n1 [Compound I-201],A (No diseased area)
16,CC#Cc1cc(C)nc(-n2cnc3ccccc32)n1 [Compound I-1123],B (Diseased area of less than 25%)
17,CCc1cc(C)nc(-n2cnc3cc(C)ccc32)n1 [Compound I-1086],B (Diseased area of less than 25%)
18,COCc1nc2cc(Cl)ccc2n1-c1nc(OC)nc(OC)n1 [Compound I-377],A (No diseased area)
19,COc1nc(-c2ccccc2)nc(-n2c(C)nc3cc(C)ccc32)n1 [Compound I-1058],A (No diseased area)
20,CCOc1cc(OCC)nc(-n2cnc3cc(C)ccc32)n1 [Compound I-482],A (No diseased area)
21,COc1nc(OC)nc(-n2c(Cl)nc3ccccc32)n1 [Compound I-41],A (No diseased area)
22,COc1ccc2c(c1)nc(C(F)(F)F)n2-c1nc(OC)nc(OC)n1 [Compound I-318],A (No diseased area)
23,COc1nc(-c2ccccc2)nc(-n2c(C(F)(F)F)nc3ccc(C)cc32)n1 [Compound I-1059],A (No diseased area)
24,COc1nc(OC)nc(-n2c(C)nc3cc(C)c(C)cc32)n1 [Compound I-251],A (No diseased area)

row,SMILES,Biological effectiveness
1,COc1nc(OC)nc(-n2c(C(F)(F)F)nc3cc(OC(F)(F)F)ccc32)n1 [Compound I-321],A (No diseased area)
2,CCc1nc2cc(C(F)(F)F)ccc2n1-c1nc(OC)cc(OC)n1 [Compound I-335],A (No diseased area)
3,COc1nc(OC)nc(-n2c(C)nc3c(C)cccc32)n1 [Compound I-212],B (Diseased area of less than 25%)
4,CCOc1cc(OCC)nc(-n2cnc3ccc(Cl)cc32)n1 [Compound I-486],A (No diseased area)
5,COc1cc(OC)nc(-n2cnc3ccc(Cl)cc32)n1 [Compound I-113],B (Diseased area of less than 25%)
6,Cc1cc(OC(C)C)nc(-n2c(C)nc3ccccc32)n1 [Compound I-840],B (Diseased area of less than 25%)
7,CCCc1cc(OC)nc(-n2c(C)nc3ccc(Cl)cc32)n1 [Compound I-967],A (No diseased area)
8,COc1nc(OC)nc(-n2c(C(Cl)(Cl)Cl)nc3cc(C)ccc32)n1 [Compound I-406],A (No diseased area)
9,CCOc1nc(OCC)nc(-n2c(C)nc3cc(C)ccc32)n1 [Compound I-516],A (No diseased area)
10,CCOc1cc(OCC)nc(-n2c(Cl)nc3ccccc32)n1 [Compound I-458],A (No diseased area)
11,CCOc1cc(OCC)nc(-n2c(Cl)nc3cc(OC)ccc32)n1 [Compound I-531],A (No diseased area)
12,CCOc1nc(OCC)nc(-n2c(C(Cl)(Cl)Cl)nc3cc(Cl)ccc32)n1 [Compound I-550],A (No diseased area)
13,CCOc1cc(OCC)nc(-n2c(C)nc3cc(F)ccc32)n1 [Compound I-498],A (No diseased area)
14,COc1ccnc(-n2c(C(F)(F)F)nc3cc(C)ccc32)n1 [Compound I-683],A (No diseased area)
15,CCOc1ccnc(-n2c(C(F)(F)F)nc3cc(Cl)ccc32)n1 [Compound I-704],B (Diseased area of less than 25%)
16,COc1cc(OC)nc(-n2c(C(F)(F)F)nc3ccc(C)cc32)n1 [Compound I-307],A (No diseased area)
17,CCc1ccc2c(c1)nc(C(F)(F)F)n2-c1nc(OC)nc(OC)n1 [Compound I-313],A (No diseased area)
18,COc1nc(C)nc(-n2c(N)nc3cc(C)ccc32)n1 [Compound I-767],B (Diseased area of less than 25%)
19,COc1cc(OC)nc(-n2cnc3ccc(F)cc32)n1 [Compound I-112],B (Diseased area of less than 25%)
20,COc1cc(OC)nc(-n2cnc3cc(F)ccc32)n1 [Compound I-82],A (No diseased area)
21,COc1nc(OC)nc(-n2c(C(F)(F)F)nc3cc(F)ccc32)n1 [Compound I-309],A (No diseased area)
22,CCOc1cc(OCC)nc(-n2c(C)nc3cc(C(F)(F)F)ccc32)n1 [Compound I-502],A (No diseased area)
23,CCc1nc2cc(F)ccc2n1-c1nc(OC)cc(OC)n1 [Compound I-332],B (Diseased area of less than 25%)
